Source: EPA's ToxValDB 9.5 (doi:10.2903/j.efsa.2016.4406)
In brackets after ≈: the same amount, converted by molar mass.

Key:
Colinus virginianus = conditions: for LD50: acute, oral, mortality
Daphnia magna = conditions: chronic/long-term; duration: 21 days; reproduction
Folsomia candida = conditions: chronic/long-term; mortality
Oncorhynchus mykiss = conditions: acute, mortality
Rattus norvegicus = conditions: for LD50: acute, mortality
Tagia sp. = conditions: chronic/long-term; growth
Apis mellifera = conditions: acute, mortality
Chironomus tentans = conditions: chronic/long-term; duration: 24 days
Neomysis kadiakensis = conditions: chronic/long-term; duration: 28 days; reproduction
Pimephales promelas = conditions: chronic/long-term; duration: 266 days; reproduction

## CSC1=N[C@@](C)(c2ccccc2)C(=O)N1
Colinus virginianus; diet
  LD50: 723 mg/kg
Daphnia magna
  NOEC: 16 mg/L
Folsomia candida
  NOEC: 250 mg/kg
Oncorhynchus mykiss
  LC50: > 98 µg/mL
Rattus norvegicus
  LD50: 176 mg/kg
Tagia sp.
  NOEC: 100 mg/kg

## CC1(c2ccccc2)NC(=O)NC1=O (configuration not stated) [5-Methyl-5-phenylhydantoin]
Colinus virginianus; diet
  LD50: > 2500 mg/kg
Rattus norvegicus; oral
  LD50: 1520 mg/kg
Rattus norvegicus; subchronic, duration: 90 days, oral
  NOAEL: 6.4 mg/kg-day

## CSC1=N[C@@](C)(c2ccccc2)C(=O)N1Nc1ccccc1 [(S)-1-Anilino-4-methyl-2-methylthio-4-phenylimidazolin-5-one]
Apis mellifera; dermal
  LD50: 25.7 µg/piece
Apis mellifera; oral, unspecified
  LD50: > 93.3 µg/piece
Chironomus tentans
  NOEC: 0.05 mg/L
Colinus virginianus; diet
  LD50: > 1070 mg/kg
Colinus virginianus
  LD50: > 2000 mg/kg
Colinus virginianus; chronic, reproduction
  NOEL: 133 mg/kg-day
Folsomia candida
  NOEC: 2.26 mg/kg
Neomysis kadiakensis
  NOEC: 0.0095 mg/L
Oncorhynchus mykiss; duration: 96 hours
  LC50: 0.74 µg/mL (≈ 2.38 µM)
Pimephales promelas
  NOEC: 0.07 mg/L
Rattus norvegicus
  LD50: > 2030 mg/kg
Rattus norvegicus; chronic, body weight
  NOAEL: 3.9 mg/kg-day
Tagia sp.
  NOEC: 0.63 mg/kg
